≈ marks a conversion by molar mass, not a printed value.
How the values were obtained:
Assay type in all cases: cell-based
[1] = system: Candida albicans NBRC1270; test: In vitro anti-Candida activity test; conditions: Table 22, 35° C. for 24 hr, alamar Blue, minimum concentration showing 80% or more inhibition
Procedure: Candida albicans NBRC1270 was used as the strain. The test fungi were cultured on a Sabouraud dextrose agar slant medium at 35° C. for 24 hr, and then suspended in sterilized saline. The number of cells in this suspension was counted using a hemocytometer, and the same suspension was adjusted to a cell concentration of 1.5×10^5 cells/mL, and this was used as an inoculum. Each compound was dissolved in dimethyl sulfoxide to a predetermined concentration, and diluted 50-fold with 0.165 M MOPS buffered RPMI 1640 liquid medium, and each diluted solution was dispensed into a 96-well microplate by each 100 μL. The inoculum was diluted 50-fold with 0.165 M MOPS buffered RPMI 1640 liquid medium containing 20% alamar Blue™, and the diluted solution was inoculated into the 96-well microplate containing the compound by each 100 μL (final inoculum amount 1.5×10^3 cells/mL). After static culture at 35° C. for 24 hr, the degree of color development of the alamar Blue™ was measured using a microplate reader (O.D. 570-595 nm), and the minimum concentration showing 80% or more inhibition was defined as the minimum inhibitory concentration (MIC).

[2] = system: Aspergillus fumigatus TIMM0063; test: In vitro anti-Aspergillus activity test; conditions: Table 22, 35° C. for 48 hr, alamar Blue, minimum concentration showing 80% or more inhibition
Procedure: Aspergillus fumigatus TIMM0063 was used as the strain. The test fungi were cultured on a Potato dextrose agar slant medium at 35° C. for 4 days, and then sterilized saline containing 0.1% (v/v) Tween 80 was added to release the conidia. This conidial suspension was filtered through sterile gauze, and the number of conidia was counted using a hemocytometer. The same solution was adjusted to a conidial concentration of 1×10^6 conidia/mL, and this was used as an inoculum. Each compound was dissolved in dimethyl sulfoxide to a predetermined concentration, and diluted 50-fold with 0.165 M MOPS buffered RPMI 1640 liquid medium, and each diluted solution was dispensed into a 96-well microplate by each 100 μL. The inoculum was diluted 50-fold with 0.165 M MOPS buffered RPMI 1640 liquid medium containing 20% alamar Blue™, and the diluted solution was inoculated into the 96-well microplate containing the compound by each 100 μL (final inoculum amount 1.0×10^4 conidia/mL). After static culture at 35° C. for 48 hr, the degree of color development of the alamar Blue™ was measured using a microplate reader (O.D. 570-595 nm), and the minimum concentration showing 80% or more inhibition was defined as the minimum inhibitory concentration (MIC).

[3] = system: Trichophyton rubrum NBRC6203; test: In vitro anti-tinea fungus activity test (T. rubrum); conditions: Table 22, 27° C. for 5 days, alamar Blue, minimum concentration showing 80% or more inhibition
Procedure: (§1) Trichophyton rubrum NBRC6203 and Trichophyton mentagrophytes TIMM2789 were used as the strains. The test fungi were cultured on a Sabouraud dextrose agar slant medium at 27° C. for 10-13 days, and then suspended in sterilized saline. The number of cells in this suspension was counted using a hemocytometer, and the same suspension was adjusted to a cell concentration of 2×10^6 conidia/mL, and this was used as an inoculum. Each compound was dissolved in dimethyl sulfoxide to a predetermined concentration, and diluted 50-fold with 0.165 M MOPS buffered RPMI 1640 liquid medium, and each diluted solution was dispensed into a 96-well microplate by each 100 μL. The inoculum was diluted 50-fold with 0.165 M MOPS buffered RPMI 1640 liquid medium containing 20% alamar Blue™, and the diluted solution was inoculated into the 96-well microplate containing the compound by each 100 μL (final inoculum amount 2×10^4 conidia/mL). After static culture at 27° C. for 3 days (Trichophyton mentagrophytes) or for 5 days (Trichophyton rubrum), the degree of color development of the alamar Blue™ was measured using a microplate reader (O.D. 570-595 nm), and the minimum concentration showing 80% or more inhibition was defined as the minimum inhibitory concentration (MIC).

[4] = system: Trichophyton mentagrophytes TIMM2789; test: In vitro anti-tinea fungus activity test (T. mentagrophytes); conditions: Table 22, 27° C. for 3 days, alamar Blue, minimum concentration showing 80% or more inhibition
Procedure: as §1

| minimum inhibitory concentration against various fungi (MIC) C. albicans [1] [ng/mL] | minimum inhibitory concentration against various fungi (MIC) A. fumigatus [2] [ng/mL] | minimum inhibitory concentration against various fungi (MIC) T. rubrum [3] [ng/mL] | minimum inhibitory concentration against various fungi (MIC) T. mentagrophytes [4] [ng/mL] | Structure (SMILES) |
| --- | --- | --- | --- | --- |
| 10 (≈ 0.0264 µM) | 5 (≈ 0.0132 µM) | ≤1 | 10 (≈ 0.0264 µM) | CO/N=C/c1cnc(C2CS/C(=C(/C#N)n3cncn3)S2)c(Cl)c1 (centres unmarked) [compound 19] |
| 5 (≈ 0.0127 µM) | 5 (≈ 0.0127 µM) | ≤1 | 10 (≈ 0.0255 µM) | CCO/N=C/c1cnc(C2CS/C(=C(/C#N)n3cncn3)S2)c(Cl)c1 (centres unmarked) [compound 21] |
| 0.6 (≈ 0.00132 µM) | 5 (≈ 0.011 µM) | ≤1 | 10 (≈ 0.022 µM) | N#C/C(=C1/SCC(c2ncc(/C=N/OCc3ccccc3)cc2Cl)S1)n1cncn1 (centres unmarked) [compound 23] |
| 2.5 (≈ 0.00662 µM) | 2.5 (≈ 0.00662 µM) | ≤1 | ≤1 | CO/N=C/c1cnc(C2CS/C(=C(/C#N)n3ccnc3)S2)c(Cl)c1 (centres unmarked) [compound 24] |

The remaining lines, values behind:

| Structure (SMILES) | minimum inhibitory concentration against various fungi (MIC) C. albicans [1] [ng/mL] | minimum inhibitory concentration against various fungi (MIC) A. fumigatus [2] [ng/mL] | minimum inhibitory concentration against various fungi (MIC) T. rubrum [3] [ng/mL] | minimum inhibitory concentration against various fungi (MIC) T. mentagrophytes [4] [ng/mL] |
| --- | --- | --- | --- | --- |
| COC(=O)Nc1cnc(C2CS/C(=C(/C#N)n3cncn3)S2)c(Cl)c1 (centres unmarked) [compound 7] | 10 (≈ 0.0253 µM) | 5 (≈ 0.0127 µM) | ≤1 | 10 (≈ 0.0253 µM) |
| CCOC(=O)Nc1cnc(C2CS/C(=C(/C#N)n3cncn3)S2)c(Cl)c1 (centres unmarked) [compound 11] | 10 (≈ 0.0245 µM) | 5 (≈ 0.0122 µM) | ≤1 | 10 (≈ 0.0245 µM) |
| CC(C)(C)OC(=O)Nc1cnc(C2CS/C(=C(/C#N)n3cncn3)S2)c(Cl)c1 (centres unmarked) [compound 12] | 10 (≈ 0.0229 µM) | 100 (≈ 0.229 µM) | 10 (≈ 0.0229 µM) | 100 (≈ 0.229 µM) |
| CCOC(=O)Nc1cnc(C2CS/C(=C(/C#N)n3ccnc3)S2)c(Cl)c1 (centres unmarked) [compound 16] | 2.5 (≈ 0.00613 µM) | 5 (≈ 0.0123 µM) | ≤1 | 10 (≈ 0.0245 µM) |

From US20250197384A1, “AZOLE COMPOUND AND ANTIFUNGAL AGENT” (NIHON NOHYAKU CO., LTD., priority 2022, published 2025)
